Data as given in PubChem BioAssay AID2305 (GlaxoSmithKline (GSK), 2010).

The compounds below were run on P. falciparum 3D7 growth, pLDH absorbance (assay: P. falciparum 3D7 growth inhibition, dose response, strain 3D7 (AID 2305)).

Compound	IC50 [nM]
CCN1CCC(N(Cc2ccc(-c3ccc(C(F)(F)F)cc3)cc2)C(=O)Cn2c(CCc3cccc(F)c3F)nc(=O)c3ccccc32)CC1	1060
Cn1c(Sc2ncnc3sccc23)nc2ccccc21	190
O=C(NC1CCN(Cc2ccccc2O)C1)c1ccc(Cl)c(Cl)c1 (centres undefined)	890
Cc1cccc2[nH]c(-c3ccc(-c4ccc(CN5CCCC5CN)cc4)cc3)nc12 (centres undefined)	810
COc1ccc(Nc2nc(NCc3cccc(NS(C)(=O)=O)c3)cc(-c3ccc(OC)cc3)n2)cc1	1220
c1ccc2[nH]c(Nc3ccc(Nc4nc5ccccc5[nH]4)cc3)nc2c1	780
O=C(CCC1CCCC1)N(Cc1ccc(-c2ccc(CNCCc3ccccc3)cc2)cc1)C1CCCNC1 (centres undefined)	1220
Cc1ccc2nc(C)cc(NN=Cc3ccccc3F)c2c1	170
CC[C@H]1CN2CCc3cc(OC)c(OC)cc3[C@@H]2C[C@@H]1C[C@H]1NCCc2cc(OC)c(OC)cc21	210
CCc1c(C)nc2nc(Cc3cccc(F)c3)nn2c1N1CCN(c2ccccn2)CC1	750
Cc1[nH]c(C)c(-c2ccc(-c3cccc(C(F)(F)F)c3)nc2)c(=O)c1Br	140
CN1CCN(Cc2nc(-c3ccc4c(Nc5ccc(Oc6ccccc6)cc5)ccnc4c3)cs2)CC1	310
CC(=O)Oc1cc(C)ccc1C1CCN(CCCCNC(=O)c2ccc(NC(=O)c3ccc(Cl)cc3)cc2)CC1	720
Cc1cc(Cl)ccc1OC(C)C(=O)N1CCc2ccccc21 (centres undefined)	670
Cc1cc(NC2CCN(CC3CCCCC3)C2)nc(Nc2ccc(Br)cc2)n1 (centres undefined)	570
NC1CCN(CCNCc2cccc(-c3ccc(-c4nc5ccc(F)cc5[nH]4)cc3)c2)C1 (centres undefined)	730
O=C(Nc1ccc(-c2ccc(-c3nc4ccccc4[nH]3)s2)cc1)Nc1ccc(Cl)c(Cl)c1	160
COc1ccccc1CNC(=O)C(=O)Nc1c(-c2ccccc2)[nH]c2ccccc12	740
O=C(Nc1ccc(Oc2ccccc2)cc1)N(Cc1ccc(-c2cccc(CN3CCNCC3)c2)cc1)C1CCN(Cc2ccccc2)CC1	880
CCCC(CC)n1ccc2c3c(N)nc(N)nc3ccc21 (centres undefined)	10
COc1ccccc1CCNc1nc(C)cc(N[C@@H](Cc2ccccc2)C(=O)NCCCOC(C)C)n1	860
COc1ccccc1/C=C/C(=O)NCCC1CCN(CCCCCNC(=O)/C=C/c2ccc(Cl)c(Cl)c2)CC1	810
CN(c1ccc(NC(=O)CCOc2ccccc2)cc1)C1CCN(Cc2cccc(O)c2)CC1	1320
COc1cc(CNCCCNc2nc3ccsc3c(=O)[nH]2)c2[nH]cc(Cl)c2c1	890
CN(C)CCN1CCN(Cc2cccc(-c3csc(-c4nc5ccccc5[nH]4)c3)c2)CC1	400

Compound	IC50 [nM]
CCCCC(=O)Nc1ccc(Nc2nc(C)cc(N3CCCC3)n2)cc1	1060
CCCCc1ccc(CCNCCCCCCNCCc2ccc(O)c(O)c2)cc1	1070
CN1CCN(CCCN(Cc2csc(-c3ccc(CNCc4ccccc4)cc3)n2)S(=O)(=O)c2ccccc2Cl)CC1	880
CN1CCC(C(=O)Nc2ccc(-c3ccc(-c4nc5ccccc5[nH]4)s3)cc2)CC1	820
CCNc1cc(C(=O)N[C@@H](Cc2ccccc2)[C@H](O)CNC2CCCCC2)cc(N2CCCCS2(=O)=O)c1	170
O=C(/C=C/c1ccc(Cl)c(Cl)c1)NCCCCCN1CCC(NC(=O)Nc2ccc(Br)cc2)CC1	570
COc1ccccc1-c1cccc(CNC2CCN(CC3Cn4c(=O)ccc5ccc(F)c3c54)CC2)c1 (centres undefined)	1380
CC(=O)Oc1c(Cl)c(C)nc(C)c1-c1ccc(Oc2ccc(Cl)cc2)cc1	30
Cc1cccc2[nH]c(-c3cccc(-c4cccc(NC(=O)N[C@@H]5C[C@H]5c5ccccc5)c4)c3)nc12	710
COc1ccc(-c2nonc2NC(=O)c2cccc(Cl)c2)cc1OC	880
Cc1cccc2[nH]c(-c3cccc(-c4ccc(NC(=O)c5ccncc5)cc4)c3)nc12	500
COc1ccc(NC(=O)c2ccc3cc4ccccc4cc3c2)cc1N1CCN(C)CC1	1030
COc1cc2c(cc1OC)CC(NCc1ccc(-c3ccc4nc[nH]c4c3)cc1)C2	850
CC(C)COc1ccc(Cl)cc1Cc1nc(-c2nc3ccc(CN4CCN(C)CC4)cc3[nH]2)co1	910
COc1ccc(C2CC(c3cccs3)=NN2C(=O)CNc2ccccc2F)cc1OC (centres undefined)	630
Cc1cc(OCCCN2CCC(NS(=O)(=O)c3ccc(C(F)(F)F)cc3)CC2)c2ccccc2n1	1220
CCN1CCC(N(Cc2ccc(-c3ccc(C(F)(F)F)cc3)o2)C(=O)Cn2c(CCc3cccc(F)c3F)nc(=O)c3ccccc32)CC1	1140
CN1CCCc2ccc(NC(=O)c3cnc(-c4ccccc4)cn3)cc21	910
CN1CCC(C(=O)Nc2ccc(-c3ccc(-c4nc5ccc(C(F)(F)F)cc5[nH]4)s3)cc2)CC1	990
C/C(=C\C(=O)NC1CC1)c1ccccc1OCc1ccccc1	500
CC1CCCCN1CCCNC(=O)c1cccc(-c2cc3cc(Cl)c(Cl)cc3[nH]2)c1 (centres undefined)	880
COc1ccc(O)c(C(=O)c2cc(C(=O)NC3CCCCC3)c(=O)n(C3CCCCC3)c2)c1	660
O=C(Nc1ccc(CN2CCOCC2)cc1)c1ccc(-c2cc(Cl)ccc2Cl)o1	610
CCCCCCCCNCC(O)c1ccc(Cl)c(Cl)c1 (centres undefined)	820
COc1ccc(CNCc2ccc(-c3ccc(-c4nc5ccc(C(F)(F)F)cc5[nH]4)cc3)cc2)cc1	130

Compound	IC50 [nM]
CSc1ccc(CN2CCC(NC(=O)c3ccc(-c4cccc(Cl)c4)s3)CC2)cc1	1290
COc1ccc(-c2nc3c(NCc4ccccc4)nccc3[nH]2)c(OC)c1	780
O=C(Nc1cccc(CN2CCCN(Cc3cccc(O)c3)CC2)c1)c1ccc(Cl)c(Cl)c1	660
CCc1nc(N)nc(N)c1-c1ccc(F)cc1	410
O=c1cc(NCCCNCc2cc(Cl)cc(Cl)c2OCc2ccc(Cl)cc2)[nH]c2ccccc12	690
CCc1cn2c3c(cc(C(=O)N[C@@H](Cc4ccccc4)[C@H](O)CNC(C)(C)CCCC(C)C)cc13)N(C)S(=O)(=O)C2	240
O=C(c1csc(-c2cccnc2)n1)N1CCc2cc3nccc(N4CCN5CCC[C@H]5C4)c3cc21	700
CCc1c(CCNCCCCCCNCCc2ccc3c(c2C)OCO3)ccc2c1OCO2	610
CN(C)C(=S)NN=Cc1cccc(O)c1O	870
COc1cccc(NC(=O)NC2CCN(CCCCCNC(=O)/C=C/c3ccc(Cl)c(Cl)c3)CC2)c1	780
COCCn1c(SC(C)C(=O)Nc2cc(C(F)(F)F)ccc2Cl)nc2ccccc2c1=O (centres undefined)	630
OCCN1CCN(C(=S)NC2CCCCC2)CC1	1100
Oc1ccc2ccccc2c1CNCC1CCCCC1	670
Cc1ccc(/C=C/C(=O)NC2CCC(N3CCC(c4ccccc4C)CC3)CC2)cc1C (centres undefined)	810
c1ccc(CNc2nc(NCCc3cnc[nH]3)nc(N3CCCC4CCCCC43)n2)cc1 (centres undefined)	830
CC1(C)[C@H]2CC[C@@H](CNc3nc(NCCc4cnc[nH]4)nc(Nc4ccc5c(c4)OCO5)n3)[C@@H]1C2	540
O=C(Nc1ccccc1)N(Cc1ccc(-c2ccc(CNCc3ccc4c(c3)OCO4)cc2)cc1)C1CCN(Cc2ccccc2)CC1	570
NC1CCN(c2nc(NCCc3ccc(O)cc3)nc(NCc3ccccc3-c3ccc(C(F)(F)F)cc3)n2)CC1	750
CCOC(=O)c1c(C)n(C2CCCCCC2)c2cc(Br)c(O)cc12	1200
COCCCNc1sc(S(=O)(=O)c2ccccc2)nc1S(=O)(=O)c1ccc(C)cc1	800
CCCCNS(=O)(=O)c1ccc(NC(=O)c2cc([N+](=O)[O-])ccc2Cl)cc1	900
CC(C)CCn1c(Sc2ccc(C#N)c([N+](=O)[O-])c2)nnc1-c1ccc(N(C)C)cc1	790
COc1ccccc1CCNc1nccc(N[C@@H](Cc2ccccc2)C(=O)NCc2cccs2)n1	870
O=C(CCCCCNC(=O)c1ccc(O)c(-c2ccc(Cl)c(Cl)c2)c1)NCc1cccc(C(F)(F)F)c1	730
COCCn1c(Sc2ncnc3sccc23)nc2ccccc21	880

Compound	IC50 [nM]
CC(COc1ccc2c(c1)OC(C)(C)CC2c1ccccc1)NCC(O)c1cccc(Cl)c1 (centres undefined)	750
COc1ccc(NC(=O)NC2CCN(CCCCCNC(=O)/C=C/c3ccc(Cl)c(Cl)c3)CC2)cc1	1010
Cc1nnc2c(NC(=O)/C=C/c3ccc(OC(F)(F)F)cc3)cc3cc(Cl)ccc3n12	170
C[C@@H](Oc1cc(-n2cnc3ccc(NC(=O)CCN4CCCCC4)cc32)sc1C(N)=O)c1ccccc1Cl	990
CCCCSc1ccc2nc(-c3c[nH]c4ccc(C#N)cc34)cn2c1	950
COc1ccc(-c2ccc(NC(=O)c3ccc(F)cc3)cc2)cc1CN1CCCN(C)CC1	660
CN1CCN(c2ccnc3ccc(NC(=O)Cc4cccc(Cl)c4Cl)cc23)CC1	790
COC(=O)CCn1c(C2CCN(CC3CCC(NC(=O)/C=C/c4ccc(Cl)c(Cl)c4)CC3)CC2)nc2ccccc21 (centres undefined)	950
Fc1ccccc1C=NNc1ccnc2ccc(C(F)(F)F)cc12	870
FC(F)(F)c1ccc(COc2cc(Cl)ccc2Cn2ccnc2)cc1	650
CN(CCN)Cc1cccc(-c2ccc(-c3nc4ccc(C(F)(F)F)cc4[nH]3)s2)c1	1000
COc1c(OC)c(OC)c2ccccc2c1CCNCCCCNCCc1c(OC)c(OC)c(OC)c2ccccc12	610
CC(C)(C)c1ccc(C(=O)Nc2ccc3nc4c(c(N)c3c2)CCCC4)cc1	170
CCOc1ccc(-c2nonc2NC(=O)c2ccccc2)cc1OCC	260
CCC(C)NC(=O)Nc1ccc(-c2cccc(-c3nc4ccccc4[nH]3)c2)cc1 (centres undefined)	820
Cc1cccc(Cl)c1Nc1nnc(-c2cccc(C(=O)NC[C@@H]3CC[C@H]4C[C@@H]3C4(C)C)c2)o1	270
COc1ccc2nc3cc(Cl)ccc3c(NCCN3CCN(C)CC3)c2c1	120
O=C(NCC1CCCCC1)c1cc(=O)c2ccccc2o1	320
CN(C)CCOc1cc(NC(=O)/C=C/c2cccc3ccccc23)ccc1I	1260
CN1c2ccc([N+](=O)[O-])cc2C(C)(C)C12C=Cc1cc(Br)cc([N+](=O)[O-])c1O2 (centres undefined)	780
COc1cc2c(cc1S(=O)(=O)c1ccc(NC(=O)Nc3ccc(F)cc3)cc1)CCN(C)CC2	470
COc1cc(C2=NN(S(=O)(=O)c3c(Cl)cc(Cl)cc3Cl)CCCC2)ccc1Cl	290
Cc1cc2nc(-c3ccc(C(=O)NC4CCN(Cc5ccccc5)CC4)cc3)[nH]c2cc1C	740
O=C(Nc1ccc2c(c1)CCN2C1CCN(Cc2ccc(C(F)(F)F)cc2F)C1)c1ccco1 (centres undefined)	510
